The values that follow come from ChEMBL document CHEMBL1201862, “PubChem BioAssay data set” (2004).

In assay [1] the target is Neuropeptides B/W receptor type 1 (Homo sapiens, UniProt P48145). Description: Fluorescence-based dose response cell-based high throughput screening assay to identify antagonists of the G-protein coupled receptor 7 (GPR7). [Related pubchem assays: 1952 (Screening assay (GPR7 antagonists).), 1880 (Summary AID.)]. The assay is classed as functional.
Assay [2] has as its target Melanin-concentrating hormone receptor 1 (Homo sapiens, UniProt Q99705). The assay can be described thus: Fluorescence-based counterscreen for antagonists of the G-protein coupled receptor 7 (GPR7): cell-based high throughput dose response assay to identify antagonists of the melanin-concentrating hormone receptor 1 (MCHR1). It counts as functional. On the technique in general: Counterscreens check selectivity or assay interference.

The test system of assay [3] is BJ. The assay can be described thus: cells. The assay is classed as functional, cell-based. Conditions: Homo sapiens.
Assay [4] in a line: DRD fibroblast viability loss – cell-based, non-viral oncogenic, luminescence, dose response (AID 1934). The assay is classed as functional. The settings on record: Homo sapiens.
Assay [5] has as its system BJ. The assay can be described thus: BJ-TERT-LT-ST fibroblast viability loss – cell-based, RAS-independent, luminescence, dose response (AID 1935).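 Note: BJ fibroblasts immortalized with TERT plus LT and ST oncogenes.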 The settings on record: Homo sapiens. It counts as functional.
The target of assay [6] is Heat shock protein HSP 90-alpha (Homo sapiens, UniProt P07900). The assay can be described thus: Luminescence-based dose response biochemical high throughput screening assay for inhibitors of the Heat Shock Protein 90 (HSP90). [Related pubchem assays: 1831 (Summary AID.), 1846 (Confirmation screen.), 1789 (Primary screen.)].
For assay [7], the system named is BJ. Description: growth inhibition of engineered Ras-driven BJ cells – cell-based, alamar blue fluorescence, cherrypicked samples, dose response (AID 2631).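 Note: confirmatory dose-response assay in RAS-dependent BJ fibroblasts engineered with TERT, LT and ST, with cytotoxicity read by fluorescence.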 It counts as functional. Conditions: Homo sapiens. On the technique in general: Resazurin is reduced to fluorescent resorufin, in cell work by metabolically active cells.
In assay [8] the test system is BJ. Description: BJ-TERT fibroblast viability loss – cell-based, RAS-independent, luminescence, dose response (AID 1933). It counts as functional. Conditions: Homo sapiens.
Assay [9] can be described thus: viability loss in A549 lung cells – cell-based, 24 h, CellTiter-Glo luminescence, cherry-picks, cytotoxicity control, dose response (AID 1053115). The assay is classed as functional. The settings on record: A549, 24 h. Background: In ATP-based viability assays light output follows the ATP content of the culture.
In assay [10] the target is Induced myeloid leukemia cell differentiation protein Mcl-1 (Homo sapiens, UniProt Q07820). The assay is classed as functional.
Induced myeloid leukemia cell differentiation protein Mcl-1, sequence (Q07820 whole entry): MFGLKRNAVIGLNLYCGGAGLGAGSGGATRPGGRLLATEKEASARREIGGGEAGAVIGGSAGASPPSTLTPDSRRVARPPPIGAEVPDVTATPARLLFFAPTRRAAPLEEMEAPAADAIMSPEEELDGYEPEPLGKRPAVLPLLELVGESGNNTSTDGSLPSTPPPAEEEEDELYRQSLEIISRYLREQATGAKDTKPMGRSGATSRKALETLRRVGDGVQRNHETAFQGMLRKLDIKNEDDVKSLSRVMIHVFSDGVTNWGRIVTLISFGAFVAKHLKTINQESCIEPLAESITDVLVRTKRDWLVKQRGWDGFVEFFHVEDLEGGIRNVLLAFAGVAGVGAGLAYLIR
Assay [11] concerns the target Bifunctional protein GlmU (Mycobacterium tuberculosis, UniProt P9WMN3). The assay can be described thus: Inhibitors of Mycobacterial Glucosamine-1-phosphate acetyl transferase (GlmU). Secondary screen. Also on record: species or system Mycobacterium tuberculosis H37Rv.
The nature of assay [12]: Trypanosoma cruzi growth suppression in host cells – NIH3T3 host cells, beta-gal luminescence, confirmation (AID 2044).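 Note: intracellular parasites grown in NIH/3T3 mouse fibroblasts as host cells; luminescent beta-galactosidase reporter signal from transgenic T. cruzi replicating inside host cells; inhibitors lower the luminescence signal.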 It counts as functional, cell-based.
The nature of assay [13]: cells. The assay is classed as functional, cell-based.
The nature of assay [14]: cells. It counts as functional, cell-based. This is another data set of the same source.
The nature of assay [15]: ATP-based viability loss in HeLa cells – cell-based, CellTiter-Glo luminescence, dry powder, set 2, cytotoxicity control, dose response (AID 720593). It counts as functional.
Assay [16] in a line: NIH3T3 cell viability loss – ATP luminescence, mouse fibroblasts, counter-screen, dose response (AID 2010).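 Note: cells exposed to compound for about 90 hours before reading.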 The assay is classed as functional, cell-based.
Assay [17] can be described thus: ATP-based viability loss in HEK293T cells – cell-based, CellTiter-Glo luminescence, dry powder, set 2, cytotoxicity control, dose response (AID 720595). The assay is classed as functional. The settings on record: HEK293.
Assay [18] can be described thus: viability loss in HepG2 hepatoma cells – cell-based, ATP luminescence, cherry-pick, activator set 2, cytotoxicity control, dose response (AID 1053143). The assay is classed as functional.
A short description of assay [19]: Luminescent dose response cell-based high throughput screening assay for inhibitors of the Janus kinase 2 mutant JAK2V617F. [Related pubchem assays: 1446 (Primary screen.), 1521 (Confirmation assay.), 1486 (Counter screen.)]. It counts as functional.
Assay [20] is described as follows: YAP1 overexpression rescue of CTGF inhibition – DLD1 cells, RT-qPCR, cherry-pick, mechanism study for YAP1 pathway inhibitor project, dose response (AID 1053127). The settings on record: DLD-1. The assay is classed as functional, cell-based.
Assay [21] can be described thus: HCT116 cell viability decrease, GSK3B pretreatment – CellTiter-Glo, IC50, dose response (AID 1117339). The assay is classed as functional. Conditions: HCT-116.
Assay [22] is described as follows: cytotoxicity toward HT-29 cells – cell-based, CellTiter-Glo luminescence, IC50, dose response (AID 1117330). The assay is classed as functional.
Assay [23] can be described thus: SNU-C1 cell viability reduction, dose response, CellTiter-Glo luminescence (AID 1117323). It counts as functional, cell-based.
A short description of assay [24]: RKO cell viability reduction, dose response, CellTiter-Glo luminescence (AID 1117322). The assay is classed as functional.
Assay [25] in a line: cytotoxicity toward HCT116 cells – cell-based, CellTiter-Glo luminescence, IC50, dose response (AID 1117332). It counts as functional. Conditions: HCT-116.
Assay [26] is described as follows: rise of 2N DNA cells, HeLa – IC50, dose response (AID 1117349). The assay is classed as functional, cell-based.
Assay [27] is described as follows: rise of 4N DNA cells, HeLa – IC50, dose response (AID 1117351). It counts as functional, cell-based.
Assay [28] is described as follows: Reduced DLD-1 viability, concentration-response, CellTiter-Glo luminescence (AID 1117352). The assay is classed as functional.

Structures are written as SMILES. The source made the active and inactive calls.

Neuropeptides B/W receptor type 1, sequence (P48145 whole entry): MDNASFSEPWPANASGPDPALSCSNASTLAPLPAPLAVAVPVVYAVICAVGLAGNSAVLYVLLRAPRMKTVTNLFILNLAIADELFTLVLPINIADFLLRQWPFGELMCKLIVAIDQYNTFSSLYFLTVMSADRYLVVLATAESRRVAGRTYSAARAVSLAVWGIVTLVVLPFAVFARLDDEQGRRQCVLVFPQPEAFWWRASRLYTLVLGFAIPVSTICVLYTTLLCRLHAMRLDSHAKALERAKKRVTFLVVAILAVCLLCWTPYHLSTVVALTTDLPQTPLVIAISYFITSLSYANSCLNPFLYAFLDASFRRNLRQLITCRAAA
Bifunctional protein GlmU, sequence (P9WMN3 whole entry): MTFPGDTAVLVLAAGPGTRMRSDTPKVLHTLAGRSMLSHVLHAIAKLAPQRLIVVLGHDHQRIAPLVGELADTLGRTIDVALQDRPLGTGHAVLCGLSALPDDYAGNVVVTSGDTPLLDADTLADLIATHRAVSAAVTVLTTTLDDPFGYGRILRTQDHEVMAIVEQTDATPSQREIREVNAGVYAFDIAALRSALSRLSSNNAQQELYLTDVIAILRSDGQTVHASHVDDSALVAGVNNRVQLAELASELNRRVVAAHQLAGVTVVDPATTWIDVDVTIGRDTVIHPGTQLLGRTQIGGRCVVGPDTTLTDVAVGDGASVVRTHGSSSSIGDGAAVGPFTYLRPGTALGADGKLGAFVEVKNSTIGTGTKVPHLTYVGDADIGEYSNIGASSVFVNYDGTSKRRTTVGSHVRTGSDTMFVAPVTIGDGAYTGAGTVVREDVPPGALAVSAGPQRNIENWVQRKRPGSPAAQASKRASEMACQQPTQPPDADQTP
Melanin-concentrating hormone receptor 1, sequence (Q99705 whole entry): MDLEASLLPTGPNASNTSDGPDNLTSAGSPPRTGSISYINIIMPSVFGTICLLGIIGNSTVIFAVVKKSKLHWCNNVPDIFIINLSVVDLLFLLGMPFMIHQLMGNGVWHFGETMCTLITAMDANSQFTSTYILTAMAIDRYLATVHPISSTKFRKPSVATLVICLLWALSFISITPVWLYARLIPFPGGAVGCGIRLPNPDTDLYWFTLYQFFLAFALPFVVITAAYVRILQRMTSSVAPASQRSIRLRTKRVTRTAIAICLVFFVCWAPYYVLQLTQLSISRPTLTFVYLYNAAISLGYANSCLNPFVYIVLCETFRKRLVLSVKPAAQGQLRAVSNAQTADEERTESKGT

In general, IC50 refers to the midpoint of a concentration-inhibition curve. For the compound `CCc1ccc(Cn2nnc(C(=O)Nc3ccc(OC)cc3OC)c2N)cc1`, the IC50 in [1] and in [2] was > 43.8 µM (not active) throughout.
As usually defined, the EC50 is the concentration needed to bring the measured effect to its halfway point. With `CNC(=S)N/N=C/c1ccc(-c2ccc(C(=O)O)cc2)o1`, the EC50 with BJ [3] is 5.08 µM (active); in assay [4], 5.6 µM (active); with BJ [5] it was 17 µM (active); in the assay with BJ [7] it was > 133 µM (inactive); in the assay on BJ [8], 4.2 µM (active). Moreover, in assay [6], the IC50 was 8.05 µM (active).
By AC50 is commonly meant the concentration giving half of the maximal activity seen. As for `COc1ccccc1CN1CC[C@@H]2[C@@H](CO)Nc3ccc(C#Cc4ccccc4)cc3[C@@H]21`, the AC50 in assay [9] is > 60 µM (inactive).
Turning to `O=C(/C=C/c1ccc(O)c(O)c1)O[C@H](Cc1ccc(O)c(O)c1)C(=O)O` [ROSMARINIC ACID], the values for the IC50 in assay [10] and in [11] were 2.03 µM (active) and 84.9 µM (active), respectively.
Take `CCc1cc2c(O)nc(-c3ccccn3)nc2s1`: the EC50 in assay [12] was 1.38 µM (active); in the assay “cells [13]”, > 350 µM (not active); in the assay “cells [14]” it was 28.8 µM (active); in [16], 2.45 µM (active). For the same compound, the AC50 in assay [15] is 24.1 µM (active); in [17], 34.5 µM (active); in assay [18], 14.2 µM (active).
Consider `Cc1ccc(Nc2nc(N)nc(CCl)n2)cc1`, for which the IC50 in assay [19] was 1.75 µM (active).
As to `CC(C)(C)[S@@+]([O-])N1Cc2cc(C(=O)NCCc3ccncc3)nc(-c3cccc(-c4cccc(C#N)c4)c3)c2[C@H]1CCO`, the AC50 in assay [20] is 0.498 µM (active).
`CC(C)C[C@H](NC(=O)[C@H](CCc1ccccc1)NC(=O)CN1CCOCC1)C(=O)N[C@@H](Cc1ccccc1)C(=O)N[C@@H](CC(C)C)C(=O)[C@@]1(C)CO1` [CARFILZOMIB]: the IC50 in assay [21] was 0.00173 µM (active); in assay [22] it was 0.00318 µM (active); in assay [23], 0.00147 µM (active); in assay [24], 0.00394 µM (active); in assay [25] it was 0.00558 µM (active); in assay [26], > 10 µM (inactive). Also, the IC50 is > 10 µM (inactive) in assay [27] and 0.00696 µM (active) in [28].
